Article PMC6413085, “A Validated HPLC-MS/MS Assay for 14-O-[(4,6-Diaminopyrimidine-2-yl)thioacetyl] Mutilin in Biological Samples and Its Pharmacokinetic, Distribution and Excretion via Urine and Feces in Rats” (Molecules, 2019)

Assay: Stability of DPTM in plasma, tissue homogenates, urine and feces (QC samples)
Format: physicochemical, rat
Experimental: Stability of DPTM and IS was examined by comparing the analytes’ concentrations in freshly prepared samples with those of samples maintained under different conditions, including the 24 h storage at room temperature, three freeze and thaw cycles, and storage at −70 °C for 4 weeks, respectively. Analyzing three levels of QC samples were used to assess the stability (accuracy and precision) with six replicates.
For the construction of calibration curves, 20 μL of each corresponding standard working solution (0.05, 0.2, 0.5, 1, 2, 5, 10, 20 and 40 μg/mL) was evaporated to dryness by nitrogen at 40 °C. The calibration standards (5, 20, 50, 100, 200, 500, 1000, 2000 and 4000 ng/mL) were prepared by adding 200 μL of blank plasma, various tissue homogenates (including heart, liver, spleen, lung, kidney, large intestine, small intestine, ileum, cecum, bladder, brain, jejunum and colon) or urine and feces to the residue, respectively. Quality control (QC) samples (10, 200 and 3000 ng/mL) were obtained by the same way as the calibration standards. All solutions were stored at −70 °C before use for no longer than 4 weeks.

## C=CC1(C)CC(OC(=O)CSc2nc(N)cc(N)n2)C2(C)C(C)CCC3(CCC(=O)C32)C(C)C1O (centres unmarked) [DPTM, 14-O-[(4,6-Diaminopyrimidine-2-yl)thioacetyl] mutilin]
Bladder, 10 ng/mL, Freeze-thaw Cycles
  Stability RE: 3.9%
Bladder, 10 ng/mL, Long-term (−70 °C, 4 Weeks)
  Stability RE: 3.6%
Bladder, 10 ng/mL, Short-term (25 °C, 24 h)
  Stability RE: 4.1%
Bladder, 200 ng/mL, Freeze-thaw Cycles
  Stability RE: 5.1%
Bladder, 200 ng/mL, Long-term (−70 °C, 4 Weeks)
  Stability RE: 5.1%
Bladder, 200 ng/mL, Short-term (25 °C, 24 h)
  Stability RE: 1.9%
Bladder, 3000 ng/mL, Freeze-thaw Cycles
  Stability RE: 3.5%
Bladder, 3000 ng/mL, Long-term (−70 °C, 4 Weeks)
  Stability RE: 3.3%
Bladder, 3000 ng/mL, Short-term (25 °C, 24 h)
  Stability RE: 3.1%
Brain, 10 ng/mL, Freeze-thaw Cycles
  Stability RE: 4.9%
Brain, 10 ng/mL, Long-term (−70 °C, 4 Weeks)
  Stability RE: 5.3%
Brain, 10 ng/mL, Short-term (25 °C, 24 h)
  Stability RE: 1.1%
Brain, 200 ng/mL, Freeze-thaw Cycles
  Stability RE: 6.5%
Brain, 200 ng/mL, Long-term (−70 °C, 4 Weeks)
  Stability RE: 6.6%
Brain, 200 ng/mL, Short-term (25 °C, 24 h)
  Stability RE: 3.3%
Brain, 3000 ng/mL, Freeze-thaw Cycles
  Stability RE: 4.1%
Brain, 3000 ng/mL, Long-term (−70 °C, 4 Weeks)
  Stability RE: 4.1%
Brain, 3000 ng/mL, Short-term (25 °C, 24 h)
  Stability RE: 8.1%
Cecum, 10 ng/mL, Freeze-thaw Cycles
  Stability RE: 7.2%
Cecum, 10 ng/mL, Long-term (−70 °C, 4 Weeks)
  Stability RE: 6.4%
Cecum, 10 ng/mL, Short-term (25 °C, 24 h)
  Stability RE: 6.7%
Cecum, 200 ng/mL, Freeze-thaw Cycles
  Stability RE: 3.9%
Cecum, 200 ng/mL, Long-term (−70 °C, 4 Weeks)
  Stability RE: 3.2%
Cecum, 200 ng/mL, Short-term (25 °C, 24 h)
  Stability RE: 3.1%
Cecum, 3000 ng/mL, Freeze-thaw Cycles
  Stability RE: −4.9%
Cecum, 3000 ng/mL, Long-term (−70 °C, 4 Weeks)
  Stability RE: −6.4%
Cecum, 3000 ng/mL, Short-term (25 °C, 24 h)
  Stability RE: −5.1%
Colon, 10 ng/mL, Short-term (25 °C, 24 h)
  Stability RE: 5.4%
Ileum, 10 ng/mL, Freeze-thaw Cycles
  Stability RE: −3.5%
Ileum, 10 ng/mL, Long-term (−70 °C, 4 Weeks)
  Stability RE: 3.2%
Ileum, 10 ng/mL, Short-term (25 °C, 24 h)
  Stability RE: 2.9%
Ileum, 200 ng/mL, Freeze-thaw Cycles
  Stability RE: 5.2%
Ileum, 200 ng/mL, Long-term (−70 °C, 4 Weeks)
  Stability RE: −5.1%
Ileum, 200 ng/mL, Short-term (25 °C, 24 h)
  Stability RE: 1.7%
Ileum, 3000 ng/mL, Freeze-thaw Cycles
  Stability RE: 3.3%
Ileum, 3000 ng/mL, Long-term (−70 °C, 4 Weeks)
  Stability RE: 3.5%
Ileum, 3000 ng/mL, Short-term (25 °C, 24 h)
  Stability RE: 3.1%
Jejunum, 10 ng/mL, Freeze-thaw Cycles
  Stability RE: 6.1%
Jejunum, 10 ng/mL, Long-term (−70 °C, 4 Weeks)
  Stability RE: 5.6%
Jejunum, 10 ng/mL, Short-term (25 °C, 24 h)
  Stability RE: 7.2%
Jejunum, 200 ng/mL, Freeze-thaw Cycles
  Stability RE: 7.3%
Jejunum, 200 ng/mL, Long-term (−70 °C, 4 Weeks)
  Stability RE: 7.3%
Jejunum, 200 ng/mL, Short-term (25 °C, 24 h)
  Stability RE: 7.5%
Jejunum, 3000 ng/mL, Freeze-thaw Cycles
  Stability RE: −5.4%
Jejunum, 3000 ng/mL, Long-term (−70 °C, 4 Weeks)
  Stability RE: −5.6%
Jejunum, 3000 ng/mL, Short-term (25 °C, 24 h)
  Stability RE: −5.3%
Kidney, 10 ng/mL, Freeze-thaw Cycles
  Stability RE: 3.7%
Kidney, 10 ng/mL, Long-term (−70 °C, 4 Weeks)
  Stability RE: 3.5%
Kidney, 10 ng/mL, Short-term (25 °C, 24 h)
  Stability RE: 3.4%
Kidney, 200 ng/mL, Freeze-thaw Cycles
  Stability RE: 2.3%
Kidney, 200 ng/mL, Long-term (−70 °C, 4 Weeks)
  Stability RE: 1.9%
Kidney, 200 ng/mL, Short-term (25 °C, 24 h)
  Stability RE: 0.9%
Kidney, 3000 ng/mL, Freeze-thaw Cycles
  Stability RE: 10.1%
Kidney, 3000 ng/mL, Long-term (−70 °C, 4 Weeks)
  Stability RE: 9.9%
Kidney, 3000 ng/mL, Short-term (25 °C, 24 h)
  Stability RE: 3.2%
Large intestine, 10 ng/mL, Freeze-thaw Cycles
  Stability RE: 6.3%
Large intestine, 10 ng/mL, Long-term (−70 °C, 4 Weeks)
  Stability RE: 6.9%
Large intestine, 10 ng/mL, Short-term (25 °C, 24 h)
  Stability RE: 1.9%
Large intestine, 200 ng/mL, Freeze-thaw Cycles
  Stability RE: 2.4%
Large intestine, 200 ng/mL, Long-term (−70 °C, 4 Weeks)
  Stability RE: 2.2%
Large intestine, 200 ng/mL, Short-term (25 °C, 24 h)
  Stability RE: 5.7%
Large intestine, 3000 ng/mL, Freeze-thaw Cycles
  Stability RE: 3.1%
Large intestine, 3000 ng/mL, Long-term (−70 °C, 4 Weeks)
  Stability RE: 3.5%
Large intestine, 3000 ng/mL, Short-term (25 °C, 24 h)
  Stability RE: −0.9%
Liver, 10 ng/mL, Freeze-thaw Cycles
  Stability RE: 3.3%
Liver, 10 ng/mL, Long-term (−70 °C, 4 Weeks)
  Stability RE: 3.4%
Liver, 10 ng/mL, Short-term (25 °C, 24 h)
  Stability RE: 2.9%
Liver, 200 ng/mL, Freeze-thaw Cycles
  Stability RE: 3.4%
Liver, 200 ng/mL, Long-term (−70 °C, 4 Weeks)
  Stability RE: 3.6%
Liver, 200 ng/mL, Short-term (25 °C, 24 h)
  Stability RE: 3.3%
Liver, 3000 ng/mL, Freeze-thaw Cycles
  Stability RE: 1.9%
Liver, 3000 ng/mL, Long-term (−70 °C, 4 Weeks)
  Stability RE: 2.1%
Liver, 3000 ng/mL, Short-term (25 °C, 24 h)
  Stability RE: 6.1%
Lung, 10 ng/mL, Freeze-thaw Cycles
  Stability RE: 2.5%
Lung, 10 ng/mL, Long-term (−70 °C, 4 Weeks)
  Stability RE: 2.9%
Lung, 10 ng/mL, Short-term (25 °C, 24 h)
  Stability RE: 3.3%
Lung, 200 ng/mL, Freeze-thaw Cycles
  Stability RE: 3.1%
Lung, 200 ng/mL, Long-term (−70 °C, 4 Weeks)
  Stability RE: 3.5%
Lung, 200 ng/mL, Short-term (25 °C, 24 h)
  Stability RE: 2.1%
Lung, 3000 ng/mL, Freeze-thaw Cycles
  Stability RE: 7.6%
Lung, 3000 ng/mL, Long-term (−70 °C, 4 Weeks)
  Stability RE: 7.5%
Lung, 3000 ng/mL, Short-term (25 °C, 24 h)
  Stability RE: 1.3%
Small intestine, 10 ng/mL, Freeze-thaw Cycles
  Stability RE: 4.9%
Small intestine, 10 ng/mL, Long-term (−70 °C, 4 Weeks)
  Stability RE: 4.6%
Small intestine, 10 ng/mL, Short-term (25 °C, 24 h)
  Stability RE: 1.3%
Small intestine, 200 ng/mL, Freeze-thaw Cycles
  Stability RE: 3.2%
Small intestine, 200 ng/mL, Long-term (−70 °C, 4 Weeks)
  Stability RE: 3.6%
Small intestine, 200 ng/mL, Short-term (25 °C, 24 h)
  Stability RE: 3.7%
Small intestine, 3000 ng/mL, Freeze-thaw Cycles
  Stability RE: 3.9%
Small intestine, 3000 ng/mL, Long-term (−70 °C, 4 Weeks)
  Stability RE: 3.8%
Small intestine, 3000 ng/mL, Short-term (25 °C, 24 h)
  Stability RE: 5.3%
Spleen, 10 ng/mL, Freeze-thaw Cycles
  Stability RE: 3.6%
Spleen, 10 ng/mL, Long-term (−70 °C, 4 Weeks)
  Stability RE: 3.3%
Spleen, 10 ng/mL, Short-term (25 °C, 24 h)
  Stability RE: 3.7%
Spleen, 200 ng/mL, Freeze-thaw Cycles
  Stability RE: 7.9%
Spleen, 200 ng/mL, Long-term (−70 °C, 4 Weeks)
  Stability RE: 7.1%
Spleen, 200 ng/mL, Short-term (25 °C, 24 h)
  Stability RE: 7.2%
Spleen, 3000 ng/mL, Freeze-thaw Cycles
  Stability RE: 5.6%
Spleen, 3000 ng/mL, Long-term (−70 °C, 4 Weeks)
  Stability RE: 5.7%
Spleen, 3000 ng/mL, Short-term (25 °C, 24 h)
  Stability RE: 5.9%
plasma, tissue homogenates, urine and feces, 24 h at room temperature, three freeze and thaw cycles, −70 °C for 4 weeks
  results of stability experiments (% RE and % RSD): ≤ 15%
